Patent US8426604B2 (Janssen Pharmaceutica NV, priority 2010, dated 2013)
pEC50: −log10 of the molar value.

Target: T1, ERR1 (also known as ERR-α or ERR-1) (Homo sapiens, UniProt P11474)
T1 sequence (P11474 193-421 limits assumed): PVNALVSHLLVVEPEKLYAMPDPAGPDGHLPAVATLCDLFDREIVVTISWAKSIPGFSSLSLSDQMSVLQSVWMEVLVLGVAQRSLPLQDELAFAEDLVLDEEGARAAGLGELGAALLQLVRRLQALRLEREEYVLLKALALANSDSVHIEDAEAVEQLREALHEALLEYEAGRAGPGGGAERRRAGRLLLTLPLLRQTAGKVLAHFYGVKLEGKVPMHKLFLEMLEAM
Test: TR-FRET assay (disruption of co-activator peptide binding)
Type: biochemical
Conditions: 6His-tagged ERR1LBD, GST-hSRC2 co-activator peptide; average of 3 independent experiments
Description: Time-Resolved Fluorescence Resonance Energy Transfer (TR-FRET) experiments were performed to examine the functional response of ERR1 (also known as ERR-α or ERR-1) ligands. The TR-FRET assay described herein relied on the conformation of ERR1 for binding to a co-activator peptide: when a test compound binds to ERR1 and alters its conformation, it can disrupt the binding of the co-activator peptide. The components of this homogeneous secondary assay included: the ^6His-tagged-ERR1LBD, a GST-labeled-hSRC2 co-activator polypeptide and a fluorescent donor/acceptor pair from CIS bio international htrf/bioassays (Bedford, Mass.) using both an α-GST Europium Cryptate (Eu) label and an α^6His-XL665 (allophycocyanin) fluorophore.
For TR-FRET measurements, the reaction was buffered in 25 mM Tris pH 8, 2.5 mM Hepes, 20 mM KCl, 1 mM DTT, and 0.05 mg/mL BSA (-lipids). The final concentrations of reagents were 6 nM of ERR1LBD, 6 nM GST-SRC-2 peptide, 30 nM Eu cryptate, and 7.5 nM XL665. Reactions were allowed to reach equilibrium at 25° C. for 4-18 hours before collecting data on the Analyst from LJL Biosystems (Molecular Devices Sunnyvale, Calif.). As a time-resolved method, the samples were excited at […] and emission was collected for 1 ms at both 615 and 665 nm with delays of 400 and 75 μs, respectively. Dose response curves were fitted using a hyperbolic equation and the data reported is the average of 3 independent experiments.

Row | pEC50 | Compound
1 | 7.62 | COC[C@@H]1C[C@H](N(C)C2=NC(=O)/C(=C/c3ccc4c(cnn4Cc4ccc(Cl)cc4C(F)(F)F)c3)S2)CN1 (stereo in doubt) [Compound 41, 5-[1-(4-Chloro-2-trifluoromethyl-benzyl)-1H-indazol-5-ylmethylene]-2-[(5-methoxymethyl-pyrrolidin-3-yl)-methyl-amino]-thiazol-4-one]
2 | 7.62 | CN(C1=NC(=O)/C(=C/c2ccc3c(cnn3Cc3ccc(Cl)cc3C(F)(F)F)c2)S1)[C@@H]1CN[C@H](CO)C1 (stereo in doubt) [Compound 42, 5-[1-(4-Chloro-2-trifluoromethyl-benzyl)-1H-indazol-5-ylmethylene]-2-[(5-hydroxymethyl-pyrrolidin-3-yl)-methyl-amino]-thiazol-4-one]
3 | 7.92 | CN(C)C1=NC(=O)/C(=C/c2ccc3c(cnn3Cc3ccc(C(F)(F)F)cc3C(F)(F)F)c2)S1 [Compound 1, 5-[1-(2,4-Bis-trifluoromethyl-benzyl)-1H-indazol-5-ylmethylene]-2-dimethylamino-thiazol-4-one]
4 | 8.15 | CN(C)CCN(C)C1=NC(=O)/C(=C/c2ccc3c(cnn3Cc3ccc(C(F)(F)F)cc3C(F)(F)F)c2)S1 [Compound 2, 5-[1-(2,4-Bis-trifluoromethyl-benzyl)-1H-indazol-5-ylmethylene]-2-[(2-dimethylamino-ethyl)-methyl-amino]-thiazol-4-one]
5 | 6.92 | N#Cc1ccc(Cn2ncc3cc(/C=C4\SC(N(CCO)CCO)=NC4=O)ccc32)c(C(F)(F)F)c1 [Compound 3, 4-(5-{2-[Bis-(2-hydroxy-ethyl)-amino]-4-oxo-4H-thiazol-5-ylidenemethyl}-indazol-1-ylmethyl)-3-trifluoromethyl-benzonitrile]
6 | 8.00 | O=C1N=C(N(CCO)CCO)S/C1=C\c1ccc2c(cnn2Cc2ccc(Cl)cc2C(F)(F)F)c1 [Compound 4, 2-[Bis-(2-hydroxy-ethyl)-amino]-5-[1-(4-chloro-2-trifluoromethyl-benzyl)-1H-indazol-5-ylmethylene]-thiazol-4-one]
7 | 8.29 | CN(C)CCN(C)C1=NC(=O)/C(=C/c2ccc3c(cnn3Cc3ccc(Cl)cc3C(F)(F)F)c2)S1 [Compound 5, 5-[1-(4-Chloro-2-trifluoromethyl-benzyl)-1H-indazol-5-ylmethylene]-2-[(2-dimethylamino-ethyl)-methyl-amino]-thiazol-4-one]
8 | 8.44 | CN(CC(O)CO)C1=NC(=O)/C(=C/c2ccc3c(cnn3Cc3ccc(Cl)cc3C(F)(F)F)c2)S1 (centres unmarked) [Compound 6, 5-[1-(4-Chloro-2-trifluoromethyl-benzyl)-1H-indazol-5-ylmethylene]-2-[(2,3-dihydroxy-propyl)-methyl-amino]-thiazol-4-one]
9 | 6.08 | CN(C)CCN(C)C1=NC(=O)/C(=C/c2ccc3c(cnn3Cc3ccc(S(C)(=O)=O)cc3Cl)c2)S1 [Compound 7, 5-[1-(2-Chloro-4-methanesulfonyl-benzyl)-1H-indazol-5-ylmethylene]-2-[(2-dimethylamino-ethyl)-methyl-amino]-thiazol-4-one]
10 | 6.28 | CN(CC(O)CO)C1=NC(=O)/C(=C/c2ccc3c(cnn3Cc3ccc(S(C)(=O)=O)cc3C(F)(F)F)c2)S1 (centres unmarked) [Compound 8, 2-[(2,3-Dihydroxy-propyl)-methyl-amino]-5-[1-(4-methanesulfonyl-2-trifluoromethyl-benzyl)-1H-indazol-5-ylmethylene]-thiazol-4-one]
11 | 8.39 | COCCN(CCOC)C1=NC(=O)/C(=C/c2ccc3c(cnn3Cc3ccc(OC)cc3C(F)(F)F)c2)S1 [Compound 9, 2-[Bis-(2-methoxy-ethyl)-amino]-5-[1-(4-methoxy-2-trifluoromethyl-benzyl)-1H-indazol-5-ylmethylene]-thiazol-4-one]
12 | 6.10 | COCCN(CCOC)C1=NC(=O)/C(=C/c2ccc3c(cnn3Cc3ncc(C(F)(F)F)cc3Cl)c2)S1 [Compound 10, 2-[Bis-(2-methoxy-ethyl)-amino]-5-[1-(3-chloro-5-trifluoromethyl-pyridin-2-ylmethyl)-1H-indazol-5-ylmethylene]-thiazol-4-one]
13 | 5.80 | CN(CC(O)CO)C1=NC(=O)/C(=C/c2ccc3c(cnn3Cc3ncc(C(F)(F)F)cc3Cl)c2)S1 (centres unmarked) [Compound 11, 5-[1-(3-Chloro-5-trifluoromethyl-pyridin-2-ylmethyl)-1H-indazol-5-ylmethylene]-2-[(2,3-dihydroxy-propyl)-methyl-amino]-thiazol-4-one]
14 | 5.41 | O=C1N=C(N(CCO)CCO)S/C1=C\c1ccc2c(cnn2Cc2ncc(C(F)(F)F)cc2Cl)c1 [Compound 12, 2-[Bis-(2-hydroxy-ethyl)-amino]-5-[1-(3-chloro-5-trifluoromethyl-pyridin-2-ylmethyl)-1H-indazol-5-ylmethylene]-thiazol-4-one]
15 | 8.44 | COc1ccc(Cn2ncc3cc(/C=C4\SC(N(C)CC(O)CO)=NC4=O)ccc32)c(C(F)(F)F)c1 (centres unmarked) [Compound 13, 2-[(2,3-Dihydroxy-propyl)-methyl-amino]-5-[1-(4-methoxy-2-trifluoromethyl-benzyl)-1H-indazol-5-ylmethylene]-thiazol-4-one]
16 | 8.48 | COCCN(CCOC)C1=NC(=O)/C(=C/c2ccc3c(cnn3Cc3ccc(Cl)cc3C(F)(F)F)c2)S1 [Compound 14, 2-[Bis-(2-methoxy-ethyl)-amino]-5-[1-(4-chloro-2-trifluoromethyl-benzyl)-1H-indazol-5-ylmethylene]-thiazol-4-one]
17 | 7.43 | CN(C1=NC(=O)/C(=C/c2ccc3c(cnn3Cc3ccc(C(F)(F)F)cc3C(F)(F)F)c2)S1)C1CCNCC1 [Compound 17, 5-[1-(2,4-Bis-trifluoromethyl-benzyl)-1H-indazol-5-ylmethylene]-2-(methyl-piperidin-4-yl-amino)-thiazol-4-one]
18 | 7.89 | CN(CCN1CCCC1)C1=NC(=O)/C(=C/c2ccc3c(cnn3Cc3ccc(Cl)cc3C(F)(F)F)c2)S1 [Compound 18, 5-[1-(4-Chloro-2-trifluoromethyl-benzyl)-1H-indazol-5-ylmethylene]-2-[methyl-(2-pyrrolidin-1-yl-ethyl)amino]-thiazol-4-one]
19 | 8.09 | CN1CCC(N(C)C2=NC(=O)/C(=C/c3ccc4c(cnn4Cc4ccc(Cl)cc4C(F)(F)F)c3)S2)CC1 [Compound 19, 5-[1-(4-Chloro-2-trifluoromethyl-benzyl)-1H-indazol-5-ylmethylene]-2-[methyl-(1-methyl-piperidin-4-yl)-amino]-thiazol-4-one]
20 | 7.62 | CON(C)C1=NC(=O)/C(=C/c2ccc3c(cnn3Cc3ccc(Cl)cc3C(F)(F)F)c2)S1 [Compound 21, 5-[1-(4-Chloro-2-trifluoromethyl-benzyl)-1H-indazol-5-ylmethylene]-2-(methoxy-methyl-amino)-thiazol-4-one]
21 | 7.89 | CN(CC(=O)O)C1=NC(=O)/C(=C/c2ccc3c(cnn3Cc3ccc(Cl)cc3C(F)(F)F)c2)S1 [Compound 22, ({5-[1-(4-Chloro-2-trifluoromethyl-benzyl)-1H-indazol-5-ylmethylene]-4-oxo-4,5-dihydro-thiazol-2-yl}-methyl-amino)-acetic acid]
22 | 8.05 | CN1CCN(CCN(C)C2=NC(=O)/C(=C/c3ccc4c(cnn4Cc4ccc(Cl)cc4C(F)(F)F)c3)S2)CC1 [Compound 23, 5-[1-(4-Chloro-2-trifluoromethyl-benzyl)-1H-indazol-5-ylmethylene]-2-{methyl-[2-(4-methyl-piperazin-1-yl)-ethyl]-amino}-thiazol-4-one]
23 | 8.05 | COCCN1CCC(N(C)C2=NC(=O)/C(=C/c3ccc4c(cnn4Cc4ccc(Cl)cc4C(F)(F)F)c3)S2)CC1 [Compound 24, 5-[1-(4-Chloro-2-trifluoromethyl-benzyl)-1H-indazol-5-ylmethylene]-2-{[1-(2-methoxy-ethyl)-piperidin-4-yl]-methyl-amino}-thiazol-4-one]
24 | 7.96 | CN(C1=NC(=O)/C(=C/c2ccc3c(cnn3Cc3ccc(Cl)cc3C(F)(F)F)c2)S1)C1CCN(CCF)CC1 [Compound 25, 5-[1-(4-Chloro-2-trifluoromethyl-benzyl)-1H-indazol-5-ylmethylene]-2-{[1-(2-fluoro-ethyl)-piperidin-4-yl]-methyl-amino}-thiazol-4-one]
25 | 7.68 | CN(CCN1CCOCC1)C1=NC(=O)/C(=C/c2ccc3c(cnn3Cc3ccc(Cl)cc3C(F)(F)F)c2)S1 [Compound 26, 5-[1-(4-Chloro-2-trifluoromethyl-benzyl)-1H-indazol-5-ylmethylene]-2-[methyl-(2-morpholin-4-yl-ethyl)-amino]-thiazol-4-one]
26 | 7.68 | CN(CCN1CCOCC1)C1=NC(=O)/C(=C/c2ccc3c(cnn3Cc3ccc(C(F)(F)F)cc3C(F)(F)F)c2)S1 [Compound 27, 5-[1-(2,4-Bis-trifluoromethyl-benzyl)-1H-indazol-5-ylmethylene]-2-[methyl-(2-morpholin-4-yl-ethyl)-amino]-thiazol-4-one]
